Test results published in patent US5200553A, “Biologically active carboxylic acid esters” (Kupat Holim Health Insurance Institution of the General …, priority 1987, dated 1993).
Counter-ions that a name gives are not always drawn. Like-named read-outs stand apart in the source and are kept apart here.

What was measured:
[1] = system: leukemic cells from six myeloid leukemic patients; test: Cytotoxicity, viability of cells 60 hours after exposure, Trypan Blue exclusion, cells (i); type: cell-based; conditions: Homo sapiens, read-out: Concentration which resulted in 50% inhibition (LD50), viability
Protocol: (§1) The compound of the invention prepared in Example I gave the results indicated in paragraphs (a), (b) and (c), below, when tested on: (i) leukemic cells from six myeloid leukemic patients, and (ii) promyelocytic cell line HL-60.
(§2) (a) Cytotoxicity. The viability of the cells 60 hours after exposure was determined by Trypan Blue exclusion.

[2] = Therapeutic index (LD50/ED50), standard procedures; conditions: in vivo
B16 Melanoma [3] = test: In vivo efficacy, 3B131 intraperitoneally implanted B16 Melanoma; parameters: species or system mouse; conditions: i.p., 1-9 days, daily
[4] = system: promyelocytic cell line HL-60; test: Inhibition of cell proliferation, tritiated thymidine incorporation, cells (ii); type: cell-based; conditions: for inhibition at 500 µM: Homo sapiens
Protocol: as §1
(b) Inhibition of cell proliferation. This was evaluated by inhibition of tritiated thymidine incorporation. The results in the following table are self-explanatory:
In a further experiment, cells (ii) were incubated with the compound of Example I or with sodium butyrate. After a period of time as specified in the following table, the agents were removed by washing the cells, and thymidine incorporation was measured 15 hours after the end of incubation.

[5] = system: leukemic cells from six myeloid leukemic patients and promyelocytic cell line HL-60 (which one is not stated); test: Induction of cytodifferentiation, reduction of nitro blue tetrazolium (NBT); type: cell-based; conditions: 0.15 mM
Protocol: (c) Induction of cytodifferentiation. This was evaluated by reduction of nitro blue tetrazolium (NBT), which is indicative of functional maturity of leucocytes.

Lewis Lung Carcinoma = test: In vivo efficacy, 3LL32 subcutaneously implanted Lewis Lung Carcinoma; parameters: species or system mouse; conditions: i.p.
Protocol: (§3) Moreover, the in vivo efficacy of the compound of the invention prepared in Example I was tested according to protocols adopted from the "Developmental Therapeutics Program, Division of Cancer Treatment, National Cancer Institute", NIH Publication 84-2635, using the following animal models: (1) 3B131 Intraperitoneally (i.p.) implanted B16 Melanoma; (2) 3B132 Subcutaneously (s.c.) implanted B16 Melanoma: and (3) 3LL32 Subcutaneously (s.c.) implanted Lewis Lung Carcinoma. Results according to the following table were obtained.

human lymphocytes = test: Colony stimulating factors (CSF) production by human lymphocytes, CFU-GM from BALB/c mouse bone marrow; type: cell-based; conditions: for CSF production, # CFU-GM / CSF production, %: 72 hours incubation; for CSF production, %: PHA = 100
Protocol: (§4) CSF activity was assayed by the ability of the supernatants from these cultures to support development on semisolid agar of CFU-GM (colony forming units--granulocytes and macrophages) from bone marrow cells of BALB/c mice.

[6] = system: promyelocytic cell line HL-60; test: Cytotoxicity, viability of cells 60 hours after exposure, Trypan Blue exclusion, cells (ii); type: cell-based; conditions: Homo sapiens, read-out: Concentration which resulted in 50% inhibition (LD50), viability
Protocol: as §1, §2

B16 Melanoma [7] = test: In vivo efficacy, 3B132 subcutaneously implanted B16 Melanoma; conditions: 125 mg./kg./mouse, i.p.; 1-6 days, daily
Protocol: as §3

mouse spleen cells = test: Colony stimulating factors (CSF) production by murine splenocytes, CFU-GM from BALB/c mouse bone marrow; type: cell-based; conditions: for CSF production, %: ConA = 100
Protocol: as §4

[8] = system: leukemic cells from six myeloid leukemic patients; test: Inhibition of cell proliferation, tritiated thymidine incorporation, cells (i); type: cell-based, human
Protocol: as §1
(b) Inhibition of cell proliferation. This was evaluated by inhibition of tritiated thymidine incorporation. The results in the following table are self-explanatory: […]

neuroblastoma = conditions: doses of up to 10 g./day; cited from earlier work
variety of tumor cells = conditions: induction of morphological and biochemical changes; cited from earlier work
[9] = system: acute myelogenous leukemia; conditions: human, in vivo
[10] = system: refractory acute myelogenous leukemia; conditions: 0.5 g./kg./day; cited from earlier work
[11] = in vivo; cited from earlier work
[12] = system: leukemic cells isolated from myelogenous leukemic patients
[13] = system: colony forming units, granulocytes and macrophages (CFU-GM); conditions: CFU-GM in soft agar; normal bone marrow and peripheral blood of leukemic patients; unpublished work; cited from earlier work
[14] = cited from earlier work
[15] = cited from earlier work; remark: listed apart in the source
[16] = Activity of hydrolysis product under conditions in which the parent compound was active; conditions: conditions in which the parent compound (Example I) was active
Text: It is postulated that the butyrate esters provided by the invention undergo intracellular hydrolysis to butyric acid; the residual fragments of the hydrolysis would be non-toxic. […] An alternative metabolic route may involve (where appropriate) the oxidation of butyrates to hydroxy-butyrates and/or oxo-butyrates.

[17] = Experiment 1, 20 μM, 24 hours incubation

CCCC(=O)OCOC(=O)C(C)(C)C [Example I, Pivaloyloxymethyl butyrate]
IC50 [1]: 150 µM
selectivity ratio [2]: 15 to 20
ILS (increased life span compared to untreated animals) (B16 Melanoma [3]; 250 mg./kg./mouse): 154%
inhibition at 500 µM ([4]; HL-60, 0.5 mM, incubation 0.5 hours, washed, measured 15 hours after end of incubation, read-out: % inhibition of tritiated thymidine incorporation): 52%
inhibition at 500 µM ([4]; HL-60, 0.5 mM, incubation 3.0 hours, washed, measured 15 hours after end of incubation, read-out: % inhibition of tritiated thymidine incorporation): 92%
inhibition at 500 µM ([4]; HL-60, 0.5 mM, incubation 16.0 hours, washed, measured 15 hours after end of incubation, read-out: % inhibition of tritiated thymidine incorporation): 99%
inhibition at 500 µM ([4]; HL-60, 0.5 mM, incubation 24.0 hours, washed, measured 15 hours after end of incubation, read-out: % inhibition of tritiated thymidine incorporation): 99%
inhibition at 500 µM ([4]; HL-60, 0.5 mM, incubation 48.0 hours, washed, measured 15 hours after end of incubation, read-out: % inhibition of tritiated thymidine incorporation): 99%
inhibition at 500 µM ([4]; HL-60, 0.5 mM, incubation 62.0 hours, washed, measured 15 hours after end of incubation, read-out: % inhibition of tritiated thymidine incorporation): 99%
inhibition at 500 µM ([4]; HL-60, 0.5 h, cells (ii), 0.5 mM, 0.5 hr. exposure, read-out: % inhibition of tritiated thymidine incorporation): 52%
inhibition at 500 µM ([4]; HL-60, 15 h, cells (ii), 0.5 mM, 15 hrs. exposure, read-out: % inhibition of tritiated thymidine incorporation): 99%
NBT reduction (% of positive cells) ([5]; incubation 24 hours): 24 % of positive cells
NBT reduction (% of positive cells) ([5]; incubation 48 hours): 49 % of positive cells
NBT reduction (% of positive cells) ([5]; incubation 72 hours): 66 % of positive cells
NBT reduction (% of positive cells) ([5]; incubation 96 hours): 77 % of positive cells
ILS (increased life span compared to untreated animals) (Lewis Lung Carcinoma; 125 mg./kg./mouse, 1-6 days, daily): 152%
ILS (increased life span compared to untreated animals) (Lewis Lung Carcinoma; 125 mg./kg./mouse, 1-18 days, every odd day): 186%
CSF production, # CFU-GM (human lymphocytes; Experiment 1, 20 μM): 10 # CFU-GM
CSF production, % (human lymphocytes; Experiment 1, 20 μM): 33%
CSF production, # CFU-GM (human lymphocytes; Experiment 1, 50 μM): 3 # CFU-GM
CSF production, % (human lymphocytes; Experiment 1, 50 μM): 10%
CSF production, # CFU-GM (human lymphocytes; Experiment 2, 20 μM): 43 # CFU-GM
CSF production, % (human lymphocytes; Experiment 2, 20 μM): 105%
CSF production, # CFU-GM (human lymphocytes; Experiment 2, 50 μM): 16 # CFU-GM
CSF production, % (human lymphocytes; Experiment 2, 50 μM): 39%
CSF production (in words) (human lymphocytes; human lymphocytes): stimulates CSF production
IC50 [6]: 100 µM
ILS (increased life span compared to untreated animals) (B16 Melanoma [7]): 150%
CSF production, # CFU-GM (mouse spleen cells; [17]): 11 # CFU-GM
CSF production, % (mouse spleen cells; [17]): 10%
CSF production, % (mouse spleen cells; Experiment 1, 50 μM, 24 hours incubation): 0%
CSF production (in words) (mouse spleen cells; murine lymphocytes): stimulates CSF production
inhibition at 100 µM ([8]; Homo sapiens, 0.1 mM, 15 hrs. exposure): 88%
inhibition at 200 µM ([8]; Homo sapiens, 0.2 mM, 15 hrs. exposure): 99%

CCCC(=O)O [butyric acid/salts, butyric acid]
IC50 [1]: 1000 µM
inhibition of tritiated thymidine incorporation (in words) ([4]; cells (ii), 24 hours, up to 1 mM): no inhibition
toxicity (in words) (neuroblastoma): no clinically detectable toxicity
anti-tumor activity (in words) (variety of tumor cells): anti-tumor activity
adverse reaction (in words) [9]: no adverse reaction
remission (in words) [10]: partial and temporary remission
toxic effects (in words) [10]: without detectable toxic effects
IC50 [6]: 400 µM
clearance (in words) [11]: high clearance
metabolization (in words) [11]: rapid metabolization
inhibition of tritiated thymidine incorporation (in words) ([8]; 24 hours, up to 2 mM): no inhibition
cytotoxic and cytodifferentiating potency (in words) [12]: the most potent cytotoxic and cytodifferentiating agent
selectivity (in words) [13]: selectivity of butyric acid/salts was demonstrated
toxicity (in words) ([14]; high dosages): no toxicity
fluid overload and alkalosis (in words) ([14]; human, in vivo): fluid overload and mild alkalosis may occur
induction period ([15]; in vitro): 48 h
induction period ([15]; in vivo): 96 to 120 h

N.N.[Cl][Pt][Cl] [cisplatin, reference compound]
ILS (increased life span compared to untreated animals) (B16 Melanoma [3]; 1.5 mg./kg./mouse): 164%

O=P1(N(CCCl)CCCl)NCCCO1 (stereo not shown) [cytoxan, reference compound]
ILS (increased life span compared to untreated animals) (Lewis Lung Carcinoma; 100 mg./kg./mouse, day 1 only): 152%

CC(C)(C)C(=O)O [pivalic acid]
activity (in words) [16]: shows no activity

CCCC(=O)[O-].[Na+] [sodium butyrate, reference compound]
inhibition at 500 µM ([4]; HL-60, read-out: % inhibition of tritiated thymidine incorporation, 0.5 mM, incubation 0.5 hours, washed, measured 15 hours after end of incubation): 0%
inhibition at 500 µM ([4]; HL-60, read-out: % inhibition of tritiated thymidine incorporation, 0.5 mM, incubation 3.0 hours, washed, measured 15 hours after end of incubation): 0%
inhibition at 500 µM ([4]; HL-60, read-out: % inhibition of tritiated thymidine incorporation, 0.5 mM, incubation 16.0 hours, washed, measured 15 hours after end of incubation): 0%
inhibition at 500 µM ([4]; HL-60, read-out: % inhibition of tritiated thymidine incorporation, 0.5 mM, incubation 24.0 hours, washed, measured 15 hours after end of incubation): 22%
inhibition at 500 µM ([4]; HL-60, read-out: % inhibition of tritiated thymidine incorporation, 0.5 mM, incubation 48.0 hours, washed, measured 15 hours after end of incubation): 50%
inhibition at 500 µM ([4]; HL-60, read-out: % inhibition of tritiated thymidine incorporation, 0.5 mM, incubation 62.0 hours, washed, measured 15 hours after end of incubation): 94%
NBT reduction (% of positive cells) ([5]; incubation 24 hours): 11 % of positive cells
NBT reduction (% of positive cells) ([5]; incubation 48 hours): 29 % of positive cells
NBT reduction (% of positive cells) ([5]; incubation 72 hours): 48 % of positive cells
NBT reduction (% of positive cells) ([5]; incubation 96 hours): 66 % of positive cells
